Assay results: paper PMC4756635 (Bioorganic & medicinal chemistry letters, 2016)
Entries after “also recorded” stand apart in the source; their conditions may differ.

What was measured:
[1] = Pharmacokinetics and oral bioavailability in C3H mice, plasma levels by LC-MS; assay type: in vivo; conditions: for bioavailability: po, 10 mg/kg; for Plasma drug concentrations at higher PO dose: mice, PO 100 mg/kg in suspension, data not shown
[2] = molecular target: HIV-1 Nef (Human immunodeficiency virus type 1 group M subtype B, UniProt P03406); assay: SPR direct binding to immobilized recombinant Nef
[3] = system: HIV-1NL4-3; assay: Nef-dependent HIV-1 replication in U87MG/CD4/CXCR4 cells, p24 Gag ELISA; assay type: cell-based; conditions: 3 μM, 4 days
[4] = C3H, mouse, plasma, iv, 2 mg/kg

SMILES	half-life [1, 4] [h]	Reduction of binding affinity for Nef relative to B9 parent compound [2] [fold]	Effect on Nef-dependent enhancement of HIV-1 replication [3]	AUC(0-inf) [1, 4] [ng·h/mL]	Cmax [1, 4] [ng/mL]	Vd [1, 4] [L/kg]	clearance [1, 4] [mL/min/kg]	bioavailability ([1]; C3H, mouse, plasma) [%]	Plasma drug concentrations at higher PO dose [1]	Nef binding by SPR (in words) [2]	AUC(0-t) [1, 4] [ng·h/mL]
NC(=S)n1nc(-c2ccc([N+](=O)[O-])cc2)c(/N=N/c2cccc(Cl)c2)c1O [Compound 1]	> 2	–	–	–	–	–	–	–	–	–	–
NC(=S)n1nc(-c2ccc([N+](=O)[O-])cc2)c(CCc2cccc(Cl)c2)c1O [Compound 2]	2.7	2	suppressed Nef-dependent enhancement of HIV-1 replication to the same extent as B9	2470	11200	0.91	15.5	53 to 85	proportionally higher plasma drug concentrations	–	–
O=[N+]([O-])c1ccc(-c2n[nH]c(O)c2CCc2cccc(Cl)c2)cc1 [Compound 3]	–	–	no activity	–	–	–	–	–	–	dramatic loss of Nef binding; also recorded: fail to bind to Nef	–
NC(=S)n1nc(-c2ccc([N+](=O)[O-])cc2)c(Cc2cccc(Cl)c2)c1O [Compound 4]	–	–	suppressed Nef-dependent enhancement of HIV-1 replication to the same extent as B9	3890	3880	0.95	11.2	57 to 100	proportionally higher plasma drug concentrations	–	3770
O=[N+]([O-])c1ccc(-c2n[nH]c(O)c2Cc2cccc(Cl)c2)cc1 [Compound 5]	–	–	no activity	–	–	–	–	–	–	dramatic loss of Nef binding; also recorded: fail to bind to Nef	–
